What was measured:
LLC cell tumors = test: Delivery of FITC-labeled dextrans (70 kDa, 2000 kDa) to tumor tissues after LPA administration; assay type: in vivo; settings: LLC tumor-bearing mice, LPA 3 mg/kg i.p., dextran i.v. 24 hours later, tumors harvested after 30 minutes
Description: LLC cells were subcutaneously inoculated into C57BL/6 NCrSlc mice aged 8 weeks (females, SLC, Inc.) in the same manner as in Example 1. An LPA administration solution was prepared in the same manner as in Example 1. On day 11 post-inoculation of LLC cells, mice with a tumor volume of 100 to 120 mm^3 were selected. The mice were divided into four groups: control and LPA groups with administration of 70 kDa dextran, and control and LPA groups with administration of 2000 kDa dextran (n=3). LPA (3 mg/kg in 100 μL PBS) or PBS (100 μL) was administered intraperitoneally. At 24 hours after LPA or PBS administration, each type of dextran was administered to the tail vein of the mice under anesthesia with pentobarbital. The dextrans used (70 kDa and 2000 kDa) were FITC-labeled dextrans (Sigma). Each type of dextran was prepared as a solution by dissolving and diluting the FITC-labeled dextran in PBS to a concentration of […], and 100 μL of the solution was used for the administration. At 30 minutes after administration of each type of dextran, the tumors were harvested from the mice, and the tumor specimens were prepared in the same manner as in Example 4. The specimens were observed and photographed under a confocal laser microscope (Leica).

[1] = system: VE-cadherin in tumor blood vessels of LLC cell tumors; test: VE-cadherin expression in vascular endothelial cells of tumors after LPA administration; assay type: in vivo, mice; settings: LPA 3 mg/kg i.p., 24 hours after administration
Description: LLC cells were subcutaneously inoculated into C57BL/6 NCrSlc mice aged 8 weeks (females, SLC, Inc.) in the same manner as in Example 1. An LPA administration solution was prepared in the same manner as in Example 1. Mice on day 9 post-inoculation of LLC cells (individuals with a tumor volume of 60 to 80 mm^3) were subjected to the experiment. The mice were divided into two groups: control group and LPA group (n=3). LPA was intraperitoneally administered to the mice of the LPA group at a dose of 3 mg/kg in 100 μL PBS. The tumors of the control group were harvested just after grouping, and the tumors of the LPA group were harvested at 24 hours after LPA administration. The tumor tissue specimens were immunostained in the same manner as in Example 1 except that the primary antibody and the secondary antibody were changed. The primary antibody was Purified […] Anti-mouse VE-cadherin (BD pharmingen), and the anti-mouse VE-cadherin antibody was diluted to 200-fold in blocking solution. The secondary antibody was Alexa Fluor 488 Goat Anti-rat IgG (Life technologies), and the antibody was diluted to 400-fold in blocking solution. The prepared specimens were observed and photographed under a confocal laser microscope (Leica). Z-stack images were acquired using a confocal laser microscope and analyzed for the expression level (fluorescence intensity) of VE-cadherin.

B16-BL6 cells = test: Lung metastasis from primary lesion in B16-BL6 cell tumor-bearing mice; assay type: in vivo; settings: B16-BL6 tumors, LPA 3 mg/kg i.p. once daily until day 21, counted on day 42, vs control, p<0.01
Description: B16-BL6 cells (1×10^6 cells in 100 μL PBS per animal) were subcutaneously injected into C57BL/6 NCrSlc mice aged 8 weeks (females, SLC, Inc.). On day 7 post-inoculation of B16-BL6 cells, mice with a tumor volume of 30 to 50 mm^3 were selected. The mice were divided into two groups: control group and LPA group (n=3). LPA (3 mg/kg in 100 μL PBS) or PBS (100 μL) was administered intraperitoneally. LPA or PBS was administered once daily until day 21 post-inoculation. On day 42 post-inoculation of B16-BL6 cells, mice were euthanized and the lung was harvested. The number of metastatic colonies in the harvested lung was counted under a stereoscopic microscope (Leica). For the statistical analysis, Student's t-test was performed.

[2] = system: newly formed blood vessels with increased permeability; test: Hindlimb ischemia model, edema (hindlimb circumference); assay type: in vivo, mice; settings: LPA 3 mg/kg i.p. once daily for three days, 24 hours after final administration, vs control
Source text: A hindlimb ischemia model is used as a pathological model of Buerger's disease and chronic arteriosclerosis obliterans. In the production of such a model, a blood vessel in the hindlimb of a mouse is dissected to induce ischemia in the region supplied by the blood vessel. The surgical dissection also causes inflammation. The ischemia and inflammation induce angiogenesis. The newly formed blood vessels have increased permeability, which induces edema in the muscles of the hindlimb. An experiment was performed to determine whether LPA inhibits such increased permeability of newly formed blood vessels induced by inflammation or ischemia.
C57BL/6 NCrSlc mice aged 6 weeks (females, SLC, Inc.) were used. An incision was made in the inguinal skin of the right hindlimb under anesthesia with pentobarbital (Kyoritsu Seiyaku Corporation). The femoral vein was ligated at the proximal end, and the saphenous artery and vein were ligated at the distal end. The arteries and veins were excised along with their side branches. The skin incision was closed with a sterilized surgical suture (Natsume Seisakusho). The animal was placed in a 37° C. incubator until the animal recovered from anesthesia. […] At 24 hours after the final administration, the hindlimb circumference was measured.

lysophosphatidic acid [LPA]
delivery of 70 kDa FITC-labeled dextran to tumor (LLC cell tumors): delivery of 70 kDa and 2000 kDa dextrans to tumors in the deep lobe was observed
delivery of 2000 kDa FITC-labeled dextran to tumor (LLC cell tumors): delivery of 70 kDa and 2000 kDa dextrans to tumors in the deep lobe was observed
expression level (fluorescence intensity) of VE-cadherin from Z-stack images [1]: a strong fluorescence intensity on the cell membrane
localization of VE-cadherin in tumor vascular endothelial cells [1]: VE-cadherin localized on the cell-cell junctions
lung metastasis (number of lung metastatic colonies) (B16-BL6 cells): significantly inhibited
hindlimb circumference (edema) [2]: significantly reduced

— patent publication US20170112861A1, “DRUG DELIVERY ENHANCER COMPRISING SUBSTANCE FOR ACTIVATING LYSOPHOSPHOLIPID RECEPTORS” (Osaka University, priority 2014, published 2017)
